Reference: ChEMBL document CHEMBL5352386 (Eur J Med Chem, 2022)
The source made the active and inactive calls. The rule behind the calls is not given here.

Tests used:
[1] = tested on: Mus musculus; assay: Neuroprotective activity against Abeta42 induced cognition impairement in AD ICR mouse model assessed as increase in ghrelin level in mouse plasma administered as oral dose for 21 days; type: functional, organism-based; conditions: time 21.0 day
[2] = Acute toxicity in overnight fasted male ICR mouse assessed as abnormal behavior at 1 g/Kg, IG administered as single dose measured upto 15 days; conditions: in vivo, po, 1000 mg/kg, 360 h, time < 15 day
[3] = tested on: SH-SY5Y; assay: Neuroprotective activity against glutamate induced toxicity in human SH-SY5Y cells at low concentration preincubated for 1 hr with compound followed by co-incubation with glutamate and measured after 24 hrs by MTT assay; type: functional, cell-based; conditions: time 25.0 hrs
[4] = Tmax in Sprague-Dawley rat at 10 mg/kg, po measured upto 1440 mins by LC/MS/MS analysis; type: ADME, organism-based; conditions: in vivo
[5] = Ratio of drug exposure in plasma to brain in ICR mouse measured after 60 mins by LC/MS/MS analysis; type: ADME, cell-free; conditions: in vivo, 1 h
[6] = Metabolic stability in human liver microsomes assessed as parent compound remaining at 1 uM incubated upto 50 mins in presence of NADPH by LC/MS/MS analysis; type: ADME, Microsome; conditions: read-out: Stability
[7] = Ratio of drug exposure in plasma to brain in ICR mouse measured after 240 by LC/MS/MS analysis; type: ADME, cell-free; conditions: in vivo, 4 h, time 240 min
[8] = Acute toxicity in overnight fasted female ICR mouse assessed as abnormal behavior at 1 g/Kg, IG administered as single dose measured upto 15 days; conditions: in vivo, po, 1000 mg/kg, 360 h, time < 15 day
[9] = Cytotoxicity against mouse BV-2 cells assessed as inhibition of cell growth measured after 24 hrs by MTT assay; type: toxicity, cell-based
[10] = Ratio of drug exposure in plasma to brain in ICR mouse measured after 480 mins by LC/MS/MS analysis; type: ADME, cell-free; conditions: in vivo, 8 h
[11] = AUC (0 to t) in Sprague-Dawley rat at 10 mg/kg, iv measured upto 1440 mins by LC/MS/MS analysis; type: ADME, organism-based; set-up: time < 1440 min, dose 10 mg/kg, route iv; conditions: in vivo
[12] = Acute toxicity in overnight fasted female ICR mouse assessed as body weight loss at 1 g/Kg, IG administered as single dose measured upto 15 days; conditions: in vivo, po, 1000 mg/kg, 360 h, time < 15 day
[13] = Acute toxicity in overnight fasted male ICR mouse assessed as body weight loss at 1 g/Kg, IG administered as single dose measured upto 15 days; conditions: in vivo, po, 1000 mg/kg, 360 h, time < 15 day
[14] = Ratio of AUCt in ICR mouse brain to AUCt in ICR mouse plasma; type: ADME, cell-free
[15] = AUC (0 to t) in ICR mouse brain administered as oral dose by LC/MS/MS analysis; type: ADME, tissue-based; set-up: route po
[16] = tested on: SH-SY5Y; assay: Neuroprotective activity against glutamate induced toxicity in human SH-SY5Y cells assessed as effect on cell survival rate at 10 to 20 uM preincubated for 1 hr with compound followed by co-incubation with glutamate and measured after 24 hrs by MTT assay; type: functional, cell-based; conditions: dose 10-20 µM, time 25.0 hrs
[17] = tested on: SH-SY5Y; assay: Induction of antioxidant effect in human SH-SY5Y cells assessed as prevention of Abeta1-42 induced ROS production preincubated for 1 hr with compound followed by Abeta1-42 stimulation and measured after 24 hrs by DCFH-DA staining based inverted fluorescence microscopy analysis; type: functional, cell-based; conditions: time 25.0 hrs
[18] = Acute toxicity in overnight fasted male ICR mouse assessed as animal death at 1 g/Kg, IG administered as single dose measured upto 15 days; conditions: in vivo, po, 1000 mg/kg, 360 h, time < 15 day
[19] = Ratio of drug exposure in plasma to brain in ICR mouse measured after 30 mins by LC/MS/MS analysis; type: ADME, cell-free; conditions: in vivo, 0.5 h
[20] = AUC (0 to infinity) in Sprague-Dawley rat at 10 mg/kg, po measured upto 1440 mins by LC/MS/MS analysis; type: ADME, organism-based; set-up: dose 10 mg/kg, time < 1440 min, route po; conditions: in vivo
[21] = tested on: L02; assay: Cytotoxicity against human L02 cells assessed as survival rate at 100 uM measured after 24 hrs by MTT assay relative to control; type: functional; conditions: read-out: Survival
[22] = AUC (0 to t) in Sprague-Dawley rat at 10 mg/kg, po measured upto 1440 mins by LC/MS/MS analysis; type: ADME, organism-based; set-up: time < 1440 min, dose 10 mg/kg, route po; conditions: in vivo
[23] = MRT infinity in Sprague-Dawley rat at 10 mg/kg, iv measured upto 1440 mins by LC/MS/MS analysis; type: ADME, organism-based; conditions: in vivo
[24] = Cmax in Sprague-Dawley rat at 10 mg/kg, iv measured upto 1440 mins by LC/MS/MS analysis; type: ADME, organism-based; set-up: dose 10 mg/kg, time < 1440 min, route iv; conditions: in vivo
[25] = Ratio of drug exposure in plasma to brain in ICR mouse measured after 120 mins by LC/MS/MS analysis; type: ADME, cell-free; conditions: in vivo, 2 h
[26] = tested on: Mus musculus; assay: Neuroprotective activity against Abeta42 induced cognition impairement in AD mouse model assessed as reduction in confusion of escape trajectory at 10 mg/kg, po measured after 14 days; type: functional, organism-based; conditions: time 14.0 day
[27] = Oral bioavailability in Sprague-Dawley rat at 10 mg/kg measured upto 1440 mins by LC/MS/MS analysis; type: ADME, organism-based; conditions: in vivo
[28] = biological target: Cholinesterase (Equus caballus, UniProt P81908); assay: Inhibition of equine serum BuChE using butyrylthiocholine iodide as substrate incubated for 10 mins followed by substrate addition by DTNB-reagent based Ellman's colorimetric assay
[29] = Ratio of drug exposure in plasma to brain in ICR mouse measured after 20 mins by LC/MS/MS analysis; type: ADME, cell-free; conditions: in vivo
[30] = Ratio of drug exposure in plasma to brain in ICR mouse measured after 10 mins by LC/MS/MS analysis; type: ADME, cell-free; conditions: in vivo
[31] = tested on: Mus musculus; assay: Neuroprotective activity against Abeta42 induced cognition impairement in AD mouse model assessed as reduction in latency time to platform at 10 mg/kg, po measured after 14 days by Morris water maze analysis; type: functional, organism-based; conditions: time 14.0 day
[32] = Cmax in ICR mouse brain administered as oral dose by LC/MS/MS analysis; type: ADME, tissue-based; set-up: route po
[33] = Half life in Sprague-Dawley rat at 10 mg/kg, po measured upto 1440 mins by LC/MS/MS analysis; type: ADME, organism-based; conditions: in vivo
[34] = tested on: Mus musculus; assay: Neuroprotective activity against Abeta42 induced cognition impairement in AD ICR mouse model assessed as increase in body weight at 10 mg/kg measured after 21 days; type: functional, organism-based; conditions: time 21.0 day
[35] = biological target: Cholinesterase (Homo sapiens, UniProt P06276); assay: Inhibition of human BuChE using butyrylthiocholine iodide as substrate incubated for 10 mins followed by substrate addition by DTNB-reagent based Ellman's colorimetric assay
[36] = Cmax in Sprague-Dawley rat at 10 mg/kg, po measured upto 1440 mins by LC/MS/MS analysis; type: ADME, organism-based; set-up: time < 1440 min, dose 10 mg/kg, route po; conditions: in vivo, 24 h
[37] = Half life in Sprague-Dawley rat at 10 mg/kg, iv measured upto 1440 mins by LC/MS/MS analysis; type: ADME, organism-based; conditions: in vivo
[38] = tested on: BV-2; assay: Induction of antioxidant effect in mouse BV-2 cells assessed as prevention of LPS-induced ROS production preincubated for 1 hr with compound followed by LPS stimulation and measured after 24 hrs by DCFH-DA staining based inverted fluorescence microscopy analysis; type: functional, cell-based; conditions: time 25.0 hrs
[39] = Acute toxicity in overnight fasted female ICR mouse assessed as animal death at 1 g/Kg, IG administered as single dose measured upto 15 days; conditions: in vivo, po, 1000 mg/kg, 360 h, time < 15 day
[40] = AUC (0 to t) in ICR mouse plasma administered as oral dose by LC/MS/MS analysis; type: ADME; set-up: route po
[41] = tested on: Mus musculus; assay: Neuroprotective activity against Abeta42 induced cognition impairement in AD ICR mouse model assessed as increase in ghrelin level in mouse brain administered as oral dose for 21 days; type: functional, organism-based; conditions: time 21.0 day
[42] = AUC (0 to infinity) in Sprague-Dawley rat at 10 mg/kg, iv measured upto 1440 mins by LC/MS/MS analysis; type: ADME, organism-based; set-up: dose 10 mg/kg, time < 1440 min, route iv; conditions: in vivo
[43] = Ratio of Cmax in ICR mouse brain to Cmax in ICR mouse plasma; type: ADME, cell-free
[44] = tested on: PC-12; assay: Cytotoxicity against rat PC12 cells assessed as survival rate at 100 uM measured after 24 hrs by MTT assay relative to control; conditions: PC-12, 24 h, read-out: Survival
[45] = Metabolic stability in human liver microsomes assessed as half life at 1 uM incubated upto 50 mins in presence of NADPH by LC/MS/MS analysis; type: ADME, Microsome
[46] = Cmax in ICR mouse plasma administered as oral dose by LC/MS/MS analysis; type: ADME; set-up: route po
[47] = tested on: SH-SY5Y; assay: Cytotoxicity against human SH-SY5Y cells assessed as survival rate at 100 uM measured after 24 hrs by MTT assay relative to control; type: functional; conditions: read-out: Survival
[48] = MRT infinity in Sprague-Dawley rat at 10 mg/kg, po measured upto 1440 mins by LC/MS/MS analysis; type: ADME, organism-based; conditions: in vivo
[49] = Drug uptake in ICR mouse central nervous system; type: ADME, tissue-based; conditions: in vivo
[50] = tested on: PC-12; assay: Cytoprotective activity against H2O2 induced cell damage in rat PC12 cells at 10 to 20 uM preincubated for 1 hr with compound followed by co-incubation with H2O2 and measured after 24 hrs by MTT assay; type: functional, cell-based; conditions: dose 10-20 µM, time 25.0 hrs
[51] = tested on: SH-SY5Y; assay: Neuroprotective activity against Abeta1-42 induced toxicity in human SH-SY5Y cells at 1 to 5 uM preincubated for 1 hr with compound followed by co-incubation with Abeta1-42 and measured after 24 hrs by MTT assay; type: functional, cell-based; conditions: dose 1-5 µM, time 25.0 hrs
[52] = Cytotoxicity against mouse BV-2 cells assessed as survival rate at 100 uM measured after 24 hrs by MTT assay relative to control; type: toxicity, cell-based; conditions: read-out: Survival
[53] = Tmax in Sprague-Dawley rat at 10 mg/kg, iv measured upto 1440 mins by LC/MS/MS analysis; type: ADME, organism-based; conditions: in vivo

Chain of Cholinesterase (Homo sapiens, UniProt P06276) (P06276 whole entry): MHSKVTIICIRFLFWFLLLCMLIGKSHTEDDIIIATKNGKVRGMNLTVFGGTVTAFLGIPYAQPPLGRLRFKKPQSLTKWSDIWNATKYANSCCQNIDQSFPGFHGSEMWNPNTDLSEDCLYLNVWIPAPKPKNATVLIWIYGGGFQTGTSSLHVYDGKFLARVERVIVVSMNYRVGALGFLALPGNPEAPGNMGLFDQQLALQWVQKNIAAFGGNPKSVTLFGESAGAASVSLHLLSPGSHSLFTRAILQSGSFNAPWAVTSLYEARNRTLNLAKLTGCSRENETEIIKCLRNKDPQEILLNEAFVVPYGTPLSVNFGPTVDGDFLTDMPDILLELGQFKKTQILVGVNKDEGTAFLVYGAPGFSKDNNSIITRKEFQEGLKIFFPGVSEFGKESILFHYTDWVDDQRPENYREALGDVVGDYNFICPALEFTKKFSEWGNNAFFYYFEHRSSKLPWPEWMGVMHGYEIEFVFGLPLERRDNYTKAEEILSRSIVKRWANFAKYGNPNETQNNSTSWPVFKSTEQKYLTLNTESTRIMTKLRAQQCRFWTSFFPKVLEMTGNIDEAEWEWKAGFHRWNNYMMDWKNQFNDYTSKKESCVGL
Chain of Cholinesterase (Equus caballus, UniProt P81908) (P81908 whole entry): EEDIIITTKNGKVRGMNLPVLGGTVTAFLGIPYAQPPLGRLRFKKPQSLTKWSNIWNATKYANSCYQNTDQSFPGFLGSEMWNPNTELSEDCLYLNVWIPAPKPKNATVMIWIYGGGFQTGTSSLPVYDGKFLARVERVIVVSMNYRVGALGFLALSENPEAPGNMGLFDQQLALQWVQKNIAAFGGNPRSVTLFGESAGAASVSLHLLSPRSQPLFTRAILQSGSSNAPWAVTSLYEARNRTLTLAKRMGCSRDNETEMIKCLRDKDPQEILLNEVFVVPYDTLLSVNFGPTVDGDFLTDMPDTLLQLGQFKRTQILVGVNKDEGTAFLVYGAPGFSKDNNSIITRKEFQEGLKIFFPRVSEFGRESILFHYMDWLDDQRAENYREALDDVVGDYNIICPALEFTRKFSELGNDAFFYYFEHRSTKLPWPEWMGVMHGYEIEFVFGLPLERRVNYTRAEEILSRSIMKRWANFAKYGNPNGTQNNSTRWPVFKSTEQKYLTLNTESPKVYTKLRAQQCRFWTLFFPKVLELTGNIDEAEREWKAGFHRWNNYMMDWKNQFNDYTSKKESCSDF

N#Cc1cc(Br)cc(NC(=O)Cn2c(-c3nonc3N)nc3ccccc32)c1
Activity [1]: Active
Activity [2]: Non-Toxic
Activity [3]: Active
Tmax [4]: 0.158 h
Ratio [5]: 0.27
remaining at 50 min, 1 µM [6]: 89.7%
Ratio [7]: 0.27
Activity [8]: Non-Toxic
IC50 at 24 h [9]: 27800 nM
Ratio [10]: 0.88
AUC(0-t) at 24 h ([11]; Sprague-Dawley): 860 ng·h/mL
Activity [12]: Non-Toxic
Activity [13]: Non-Toxic
Kp [14]: 0.31
AUC(0-t) [15]: 356 ng·h/mL
Activity [16]: Active
Activity [17]: Active
Activity [18]: Non-Toxic
Ratio [19]: 0.82
AUC(0-inf) [20]: 662 ng·h/mL
viability at 100 µM [21]: 72.4%
AUC(0-t) at 24 h [22]: 628 ng·h/mL
MRT inf [23]: 14.1 h
Cmax ([24]; Sprague-Dawley, read-out: Cmax): 488 ng/mL
Ratio [25]: 0.54
Activity [26]: Active
bioavailability [27]: 73.4%
IC50 [28]: 0.15 nM
Ratio [29]: 2.23
Ratio [30]: 13.33
Activity [31]: Active
Cmax [32]: 179 ng/mL
half-life [33]: 5.47 h
Activity [34]: Active
IC50 [35]: 45.2 nM
Cmax [36]: 44.73 ng/mL
half-life [37]: 8.87 h
Activity [38]: Active
Activity [39]: Non-Toxic
AUC(0-t) [40]: 1160 ng·h/mL
Activity [41]: Active
AUC(0-inf) ([42]; Sprague-Dawley): 1090 ng·h/mL
Kp [43]: 0.1
viability at 100 µM [44]: 54.6%
half-life at 1 µM [45]: 5.75 h
Cmax [46]: 1760 ng/mL
viability at 100 µM [47]: 57.8%
MRT inf [48]: 11.6 h
Drug uptake [49]: Active
Activity [50]: Active
Activity [51]: Active

Nc1nonc1-c1nc2ccccc2n1CC(=O)Nc1cnc2ccccc2c1
Tmax [4]: 0.18 h
AUCt ([11]; 24 h): 15662.39 ng·h/mL
AUC(0-inf) [20]: 3780 ng·h/mL
viability at 100 µM [21]: 70.6%
AUC(0-t) at 24 h [22]: 3360 ng·h/mL
viability at 24 h, 100 µM [52]: 62.7%
MRT inf [23]: 3.11 h
Cmax ([24]; 24 h): 9752.7 ng/mL
bioavailability [27]: 23.6%
half-life [33]: 4.74 h
IC50 [35]: 50.1 nM
Cmax [36]: 975.05 ng/mL
half-life [37]: 2.68 h
AUC ([42]; 24 h): 15988.79 ng·h/mL
viability at 100 µM [47]: 62.2%
MRT inf [48]: 7.37 h
Tmax [53]: 1 min
